Legend:
Type in all cases: cell-based
[1] = system: A375 melanoma cell line; assay: SRB analysis 3; details: 48 hours
Description: (§1) Through SRB analysis (n=3), the effect of triple combination treatment of a CAC inhibitor (KN510: omeprazole), ACAA inhibitor (KN713: trimetazidine) and other anticancer drug on cell growth in the cancer cells was analyzed. (see Table 11).
(§2) The SRB assay was performed as follows: each cell line (100 μl) was seeded into 96-well microtiter plates at densities ranging from 5,000 to 40,000 cells/well depending on the doubling time of each cell line. After 24 hours, drug (100 μl per well) was added to each well and the culture was incubated at 37° C. for 48 hours. Cells were then fixed in 50% TCA (50 μl per well) and plates were incubated at 4° C. for a minimum of 1 hour or a maximum of 3 hours. After that, the liquid was removed from the plate, then rinsed 5 times with water and dried for approximately 12-24 hours at room temperature (RT). After the fixed cells were stained with 0.4% SRB (100 μl per well) for 10 minutes at room temperature, the plates were washed 3 times with 1% glacial acetic acid and dried at room temperature for about 12-24 hours. SRB staining was dissolved in 10 mM Trizma base and absorbance was read at 515 nm. The effect of the drug was expressed as GI50 (50% growth inhibition), TGI (total growth inhibition) or LC50 (lethal concentration). GI50 is the maximum concentration at the moment of 50% inhibition of cell proliferation and IC50 is the concentration of the drug that inhibits the enzyme activity in vitro by 50% in this study.

[2] = system: A549 non-small cell lung cancer (NSCLC) cell line; assay: SRB analysis 3; details: 48 hours
Description: as §1, §2

[3] = system: ACHN renal cancer cell line; assay: SRB analysis 3; details: 48 hours
Description: as §1, §2

[4] = system: AGS gastric cancer cell line; assay: SRB analysis 3; details: 48 hours
Description: as §1, §2

[5] = system: AsPC-1 pancreatic cancer (PDAC) cell line; assay: SRB analysis 3; details: 48 hours
Description: as §1, §2

[6] = system: COLO-205 colon cancer cell line; assay: SRB analysis 3; details: 48 hours
Description: as §1, §2

[7] = system: Caki-1 renal cancer cell line; assay: SRB analysis 3; details: 48 hours
Description: as §1, §2

[8] = system: DU145 prostate cancer cell line; assay: SRB analysis 3; details: 48 hours
Description: as §1, §2

[9] = system: H1975 non-small cell lung cancer (NSCLC) cell line; assay: SRB analysis 3; details: 48 hours
Description: as §1, §2

[10] = system: HCT-116 colon cancer cell line; assay: SRB analysis 3; details: 48 hours
Description: as §1, §2

[11] = system: Huh-7 liver cancer cell line; assay: SRB analysis 3; details: 48 hours
Description: as §1, §2

[12] = system: MCF7 breast cancer cell line; assay: SRB analysis 3; details: 48 hours
Description: as §1, §2

[13] = system: MDA-MB-231 breast cancer cell line; assay: SRB analysis 3; details: 48 hours
Description: as §1, §2

[14] = system: MIA PaCa-2 pancreatic cancer (PDAC) cell line; assay: SRB analysis 3; details: 48 hours
Description: as §1, §2

[15] = system: MKN45 gastric cancer cell line; assay: SRB analysis 3; details: 48 hours
Description: as §1, §2

[16] = system: OVCAR-8 ovarian cancer cell line; assay: SRB analysis 3; details: 48 hours
Description: as §1, §2

[17] = system: PC-3 prostate cancer cell line; assay: SRB analysis 3; details: 48 hours
Description: as §1, §2

[18] = system: SK-OV-3 ovarian cancer cell line; assay: SRB analysis 3; details: 48 hours
Description: as §1, §2

[19] = system: SK-hep-1 liver cancer cell line; assay: SRB analysis 3; details: 48 hours
Description: as §1, §2

[20] = system: UACC62 melanoma cell line; assay: SRB analysis 3; details: 48 hours
Description: as §1, §2

[21] = system: T87G glioblastoma (GBM) cell line; assay: SRB analysis 3; details: 48 hours
Description: as §2, with “Through SRB analysis (n=3), the effect of triple combination treatment of a CAC inhibitor ([…] inhibitor (KN713: trimetazidine) and other anticancer drug on cell growth in the cancer cells was analyzed. (see Table 11). The” for “The”, “nm.” for “nm. The effect of the drug was expressed as GI50 (50% growth inhibition), TGI (total growth inhibition) or LC50 (lethal concentration). GI50 is the maximum concentration at the moment of 50% inhibition of cell proliferation and IC50 is the concentration of the drug that inhibits the enzyme activity in vitro by 50% in this study.”

[22] = system: U87MG glioblastoma (GBM) cell line; assay: SRB analysis 3; details: 48 hours
Description: as §2, with “Through SRB analysis (n=3), the effect of triple combination treatment of a CAC inhibitor ([…] inhibitor (KN713: trimetazidine) and other anticancer drug on cell growth in the cancer cells was analyzed. (see Table 11). The” for “The”, “nm.” for “nm. The effect of the drug was expressed as GI50 (50% growth inhibition), TGI (total growth inhibition) or LC50 (lethal concentration). GI50 is the maximum concentration at the moment of 50% inhibition of cell proliferation and IC50 is the concentration of the drug that inhibits the enzyme activity in vitro by 50% in this study.”

[23] = system: cancer cells; assay: SRB analysis 3, triple combination, summary over cancer panels
Description: as §1, §2

[24] = Breast Cancer, BT-549, MDA MB 231
[25] = Ovarian Cancer, SK-OV-3, OVCAR-3
[26] = Renal cell carcinoma, ACHN, CAKI-1

`CCc1c2c(nc3ccc(OC(=O)N4CCC(N5CCCCC5)CC4)cc13)-c1cc3c(c(=O)n1C2)COC(=O)[C@]3(O)CC` [Irinotecan] was tested, and the “cell growth (Control = 100)” value ([1]; Irinotecan 2.5 μM) was −23.32, the “cell growth (Control = 100)” value ([2]; Irinotecan 2.5 μM) was 17.6 and the “cell growth (Control = 100)” value ([3]; Irinotecan 2.5 μM) was −43.8973. The “cell growth (Control = 100)” value ([4]; Irinotecan 2.5 μM) was 13.58, the “cell growth (Control = 100)” value ([5]; Irinotecan 2.5 μM) was 45.75 and the “cell growth (Control = 100)” value ([6]; Irinotecan 2.5 μM) was 10.02. The “cell growth (Control = 100)” value ([7]; Irinotecan 2.5 μM) was 22.65, the “cell growth (Control = 100)” value ([8]; Irinotecan 5 μM) was 28.6 and the “cell growth (Control = 100)” value ([9]; Irinotecan 2.5 μM) was 25.71. The “cell growth (Control = 100)” value ([10]; Irinotecan 2.5 μM) was −0.3443, the “cell growth (Control = 100)” value ([11]; Irinotecan 2.5 μM) was 15.47 and the “cell growth (Control = 100)” value ([12]; Irinotecan 2.5 μM) was 7.427. The “cell growth (Control = 100)” value ([13]; Irinotecan 2.5 μM) was 78.25, the “cell growth (Control = 100)” value ([14]; Irinotecan 2.5 μM) was 2.59 and the “cell growth (Control = 100)” value ([15]; MKN45, Irinotecan 2.5 μM) was 40.94. For the same compound, the “cell growth (Control = 100)” value ([16]; Irinotecan 2.5 μM) was 36.34, the “cell growth (Control = 100)” value ([17]; Irinotecan 5 μM) was 37.7 and the “cell growth (Control = 100)” value ([18]; Irinotecan 2.5 μM) was 13.57. The “cell growth (Control = 100)” value ([19]; Irinotecan 2.5 μM) was −15.5188, the “cell growth (Control = 100)” value ([20]; Irinotecan 2.5 μM) was −13.35 and the “cell growth (Control = 100)” value ([21]; Irinotecan 2.5 μM) was 71.53. For the same compound, the “cell growth (Control = 100)” value ([22]; Irinotecan 2.5 μM) was 6.31, the “Positive/Negative (triple combination of KN510, KN713 and the listed anticancer drug)” value (“Positive/Negative” below) [23, 24] was “Positive” and the “Positive/Negative” value ([23]; Colon Cancer, HT-29, COLO-205) was “negative”. For the same compound, the “Positive/Negative” value ([23]; GBM, U87MG, T87G) was “Positive”, the “Positive/Negative” value ([23]; Liver Cancer, SNU-449, Huh-7) was “negative” and the “Positive/Negative” value ([23]; NSCLC, A549, H522) was “Positive”. The “Positive/Negative” value [23, 25] was “negative”, the “Positive/Negative” value ([23]; PDAC, MIA PaCa-2, PANC-1) was “Positive” and the “Positive/Negative” value ([23]; Prostate Cancer, PC-3, DU-145) was “Positive”. The “Positive/Negative” value [23, 26] was “negative”, the “Positive/Negative” value ([23]; Stomach Cancer, MKN-28, AGS) was “Positive” and the “Positive/Negative” value ([23]; melanoma, UACC62, A375) was “Positive”.

With `CC(=O)O[C@H]1C(=O)[C@@]2(C)[C@H]([C@H](OC(=O)c3ccccc3)[C@]3(O)C[C@H](OC(=O)[C@H](O)[C@@H](NC(=O)c4ccccc4)c4ccccc4)C(C)=C1C3(C)C)[C@]1(OC(C)=O)CO[C@@H]1C[C@@H]2O` [Paclitaxel] the “cell growth (Control = 100)” value ([1]; Paclitaxel 10 nM) was 40.20, the “cell growth (Control = 100)” value ([2]; Paclitaxel 10 nM) was 17.6 and the “cell growth (Control = 100)” value ([3]; Paclitaxel 10 nM) was 105.2409. For the same compound, the “cell growth (Control = 100)” value ([4]; Paclitaxel 20 nM) was 20.3903, the “cell growth (Control = 100)” value ([5]; Paclitaxel 10 nM) was 41.94 and the “cell growth (Control = 100)” value ([6]; Paclitaxel 10 nM) was −8.628. For the same compound, the “cell growth (Control = 100)” value ([7]; Paclitaxel 10 nM) was 128.124, the “cell growth (Control = 100)” value ([8]; Paclitaxel 10 nM) was 46.381 and the “cell growth (Control = 100)” value ([9]; Paclitaxel 10 nM) was 45.06. For the same compound, the “cell growth (Control = 100)” value ([10]; Paclitaxel 10 nM) was 15.07, the “cell growth (Control = 100)” value ([11]; Paclitaxel 10 μM) was 63.01 and the “cell growth (Control = 100)” value ([12]; Paclitaxel 10 μM) was 17.28. For the same compound, the “cell growth (Control = 100)” value ([13]; Paclitaxel 10 μM) was 70.48, the “cell growth (Control = 100)” value ([14]; Paclitaxel 10 nM) was 16.4 and the “cell growth (Control = 100)” value ([15]; MKN-45, Paclitaxel 20 nM) was 8.846. For the same compound, the “cell growth (Control = 100)” value ([16]; Paclitaxel 10 μM) was 76.61, the “cell growth (Control = 100)” value ([17]; Paclitaxel 10 nM) was 47.85 and the “cell growth (Control = 100)” value ([18]; Paclitaxel 10 μM) was 62.41. For the same compound, the “cell growth (Control = 100)” value ([19]; Paclitaxel 10 μM) was 78.76, the “cell growth (Control = 100)” value ([20]; Paclitaxel 10 nM) was 65.90 and the “cell growth (Control = 100)” value ([21]; Paclitaxel 10 nM) was 56.70. For the same compound, the “cell growth (Control = 100)” value ([22]; Paclitaxel 10 nM) was 28.87, the “Positive/Negative” value [23, 24] was “Positive” and the “Positive/Negative” value ([23]; Colon Cancer, HT-29, COLO-205) was “Positive”. The “Positive/Negative” value ([23]; GBM, U87MG, T87G) was “Positive”, the “Positive/Negative” value ([23]; Liver Cancer, SNU-449, Huh-7) was “Positive” and the “Positive/Negative” value ([23]; NSCLC, A549, H522) was “Positive”. The “Positive/Negative” value [23, 25] was “Positive”, the “Positive/Negative” value ([23]; PDAC, MIA PaCa-2, PANC-1) was “Positive” and the “Positive/Negative” value ([23]; Prostate Cancer, PC-3, DU-145) was “Positive”. The “Positive/Negative” value [23, 26] was “negative”, the “Positive/Negative” value ([23]; Stomach Cancer, MKN-28, AGS) was “Positive” and the “Positive/Negative” value ([23]; melanoma, UACC62, A375) was “Positive”.

From US12728119B2, “Pharmaceutical composition for preventing or treating cancer comprising 3-ketoacyl CoA thiolase inhibitor and carnitine acylcarnitine carrier inhibitor” (NATIONAL CANCER CENTER, priority 2020, dated 2026)
